# Measured values as given in patent US8067424B2, “Selective inhibitors for cyclin-dependent kinases” (Emory University, priority 2007, dated 2011).
# Where two headings read alike, the source gives them in different places.
# Legend:
# JNK3 = JNK3 (Homo sapiens, UniProt P53779); assay: Kinase screen: JNK3 alpha 1 assay; type: biochemical; details: read-out: Mean Remaining Enzyme Activity (%)
# Protocol: Generally, the same procedure was used for all assays. Since the total assay volume was 25.5 microliters, 0.5 microliters of inhibitors at 51× assay concentration were added to the plates before any other addition.
# The basic procedure was to add 0.5 microliters inhibitor/control in DMSO to plate. Fifteen microliters of enzyme/substrate/buffer mix were added and incubated for 5 min. Ten microliters MgATP at the relevant concentration were added and incubated for 30 min. The assay was stopped by adding 5 microliters of 3% orthophosphoric acid. The assay was transferred to a p81 filter plate and read in a scintillation counter of 30 sec/well. Note that this assay procedure was not followed for MKK1, which instead involved a two-step assay, and PKC alpha, which required the addition of lipid vesicles.
# JNK3 alpha 1 assay: JNK3 alpha 1(5-20 mU diluted in 50 mM Tris (pH 7.5), 0.1 mM EGTA, 1 mg/ml BSA, 0.1% b-mercaptoethanol) was assayed against ATF2 (activating transcription factor in a final volume of 25.5 μl in 50 mM Tris pH 7.5, 0.1 mM EGTA, 0.1% b-Mercaptoethanol, ATF2 (3 μM), 10 mM magnesium acetate and 0.05 mM [33P-g-ATP] (500-1000 cpm/pmole) and incubated for 30 min at room temperature. Assays were stopped by addition of 5 μl of 0.5 M (3%) orthophosphoric acid and then harvested onto P81 Unifilter plates with a wash buffer of 50 mM orthophosphoric acid.
# HOP-62 = assay: cells; details: Homo sapiens
# SW-620 = assay: cells; details: Homo sapiens
# ACHN = details: for Mean Optical Densities / Percent Growth: ACHN
# CCRF-CEM = assay: cells; details: Homo sapiens
# RPMI-8226 = assay: cells; details: Homo sapiens
# M14 = assay: cells; details: Homo sapiens
# [1] = IGROV1, log10 concentration −4.0
# [2] = IGROV1, log10 concentration −5.0
# [3] = IGROV1, log10 concentration −6.0
# [4] = IGROV1, log10 concentration −7.0
# [5] = IGROV1, log10 concentration −8.0
# JNK3, sequence (P53779 1-422 isoform P53779-2, species assumed): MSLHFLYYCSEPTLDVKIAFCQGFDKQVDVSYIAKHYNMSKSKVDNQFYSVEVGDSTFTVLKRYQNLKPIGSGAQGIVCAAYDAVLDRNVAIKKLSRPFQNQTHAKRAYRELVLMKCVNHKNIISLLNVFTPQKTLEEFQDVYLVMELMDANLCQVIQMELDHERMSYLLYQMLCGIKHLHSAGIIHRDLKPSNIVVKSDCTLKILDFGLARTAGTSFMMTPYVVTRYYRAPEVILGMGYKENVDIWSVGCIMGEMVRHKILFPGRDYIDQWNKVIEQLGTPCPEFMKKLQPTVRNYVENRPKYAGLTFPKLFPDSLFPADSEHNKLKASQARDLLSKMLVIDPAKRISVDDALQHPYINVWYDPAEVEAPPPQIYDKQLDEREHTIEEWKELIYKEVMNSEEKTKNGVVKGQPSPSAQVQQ
compound,measurement,setting,value
CC(C)c1cnn2c(NCc3ccccc3)cc(NCCCCCCCN)nc12 [BS-181],remaining activity at 10 µM,JNK3,128%
"CC(C)c1cnn2c(NCc3ccccc3)cc(N[C@@H](CO)[C@H](O)CO)nc12 [ICEC0318, (3S)-3-(7-(Benzylamino)-3-isopropylpyrazolo[1,5-a]pyrimidin-5-ylamino)butane-1,2,4-triol]",GI50,HOP-62; HOP-62,0.243 µM
same,CC50,"HOP-62; HOP-62, read-out: LC50",> 100 µM
same,GI50,SW-620; SW-620,0.285 µM
same,CC50,"SW-620; SW-620, read-out: LC50",> 100 µM
same,TGI,IGROV1; IGROV1 (Ovarian Cancer),>1.00E−4
same,Mean Optical Densities,IGROV1; [1],0.451
same,Percent Growth,IGROV1; [1],4%
same,Mean Optical Densities,IGROV1; [2],0.510
same,Percent Growth,IGROV1; [2],10%
same,Mean Optical Densities,IGROV1; [3],0.528
same,Percent Growth,IGROV1; [3],12%
same,Mean Optical Densities,IGROV1; [4],1.088
same,Percent Growth,IGROV1; [4],68%
same,Mean Optical Densities,IGROV1; [5],1.429
same,Percent Growth,IGROV1; [5],103%
same,TGI,ACHN; ACHN (Renal Cancer),>1.00E−4
same,Mean Optical Densities,ACHN; log10 concentration −4.0,0.343
same,Percent Growth,ACHN; log10 concentration −4.0,5%
same,Mean Optical Densities,ACHN; log10 concentration −5.0,0.347
same,Percent Growth,ACHN; log10 concentration −5.0,5%
same,Mean Optical Densities,ACHN; log10 concentration −6.0,0.358
same,Percent Growth,ACHN; log10 concentration −6.0,6%
same,Mean Optical Densities,ACHN; log10 concentration −7.0,1.080
same,Percent Growth,ACHN; log10 concentration −7.0,75%
same,Mean Optical Densities,ACHN; log10 concentration −8.0,1.302
same,Percent Growth,ACHN; log10 concentration −8.0,96%
same,GI50,CCRF-CEM,0.342 µM
same,GI50,RPMI-8226; RPMI-8226,0.227 µM
same,CC50,"RPMI-8226; RPMI-8226, read-out: LC50",> 100 µM
same,GI50,M14; M14,0.305 µM
same,CC50,"M14; M14, read-out: LC50",45.2 µM
